Laboratory results taken from a melting point compilation (Tetko et al.; mined from patent text by program, amines drawn as free bases though some values may be those of a salt).

Row | Structure (SMILES) | melting point [°C]
1 | COc1ccc(CN2CCC(C(=O)NO)(S(=O)(=O)c3ccc(OC)cc3)CC2)cc1 | 175
2 | COc1cc(C(=O)NS(=O)(=O)c2ccccc2)cnc1C(=O)O | 176 to 178
3 | CCCn1nc2c(N)nc3ccccc3c2c1CCCCC(=N)NO | 222 to 224
4 | C=CC(=O)Oc1c(Br)c(Br)c(Br)c(Br)c1OC(=O)C=C | 135 to 137
5 | COC(=O)C1=C(C)NC(C)=C(C(C)=O)C1c1ccccc1Cl (stereo not given) | 183 to 184
6 | CCCCCC(=O)NC[C@@H]1CN2C(=O)C[C@H]2O1 (racemic) | 56 to 57
7 | COC(=O)CCCCCCCn1cc(-c2ccccc2)c(-c2ccccc2)nc1=O | 80 to 83
8 | O=c1c2c(Cc3ccccc3)n[nH]c2c2cccnc2n1-c1ccc(O)cc1 | > 320
9 | Cc1oc(-c2ccco2)nc1CCOc1ccc(N)cn1 | 88 to 90
10 | CN(C)Cc1cc2ccc(C(=O)NN)cc2n1S(C)(=O)=O | 170 to 173
11 | CCC1C(C)=NN=C(c2ccc(O)c(OC)c2)c2cc(OC)c(O)cc21 (stereo not given) | 210 to 212
12 | CC1(C)OC2C=CC(=O)C2O1 (single isomer, unassigned; (+)) | 68 to 69
13 | O=C(O)C1CC(=O)N(Cc2ccccc2)C1C(=O)N(Cc1ccccc1)Cc1ccccc1 (stereo not given) | 123 to 125
14 | COC(=O)c1nn(Cc2ccc(Cl)c(Cl)c2)c(=O)c2cc(OC)ccc12 | 144 to 146
15 | CCC1N=C(c2ccccc2Cl)c2cc(CCC(=O)OC)sc2-n2c(C)nnc21 (stereo not given) | 126 to 127
16 | CC(C)(C)c1cc(Oc2ccc([N+](=O)[O-])c(O)c2)ccc1Oc1ccc([N+](=O)[O-])c(O)c1 | 156 to 158
17 | CNC(=O)c1cccc(Nc2nc(Nc3ccc4c(c3)C(C)(C)CCC(=O)N4)ncc2Cl)c1 | 184
18 | CC1(C)CCC(C)(C)c2cc(OCc3ccc(C=O)cc3)ccc21 | 102 to 104
19 | NC(=S)N1CCc2cccnc21 | 173
20 | COc1cc(OC)nc(Oc2cc([N+](=O)[O-])ccc2C(=O)O)n1 | 93 to 96
21 | C=C(C)C(=O)Nc1nc(CCC)n(Cc2ccc(-c3ccccc3-c3nnn[nH]3)cc2)c1C(=O)OCC | 134 to 136
22 | C=CCc1cc2c(c(CC=C)c1OC1CCCCO1)CCC(=O)N2CCC#N (stereo not given) | 93 to 94
23 | Brc1ccc2[nH]cc(Cc3cccnc3)c2c1 | 122
24 | O=c1[nH]c2cc(Cl)c(Cl)cc2n1CCCO | 175
25 | CCCCCCCCCCCCCCCSCCO | 44 to 46

Row | Structure (SMILES) | melting point [°C]
26 | Oc1ccc(-c2nc3cc(Cl)c(O)cc3o2)cc1 | 254 to 256
27 | Clc1ccc2ncc3nc(Br)n(-c4ccccc4Cl)c3c2c1 | 183 to 192
28 | CC(CN1C(C)CCC1C)N1c2ccccc2Sc2ccc(C#N)cc21 (mixture of isomers) | 105
29 | COC(=O)c1ccc(=O)n(Cc2ccc(-c3ccccc3)cc2)c1 | 130 to 133
30 | CC(C)Oc1ccc(Cc2ccc(N)cc2)cc1 | 92 to 93
31 | O=c1ccoc2ccc(F)cc12 | 165 to 168
32 | C=CCC(N)c1cccc(OC)c1 (stereo not given) | 30
33 | CCC(CC(=O)O)c1ccc(C(=O)OC)cc1 (stereo not given) | 165 to 166
34 | Cc1cn(N=Cc2cc(C(C)(C)C)c(O)c(C(C)(C)C)c2)cn1 | 150 to 151
35 | Cc1[nH]c(=O)[nH]c1C(=O)Cc1ccccc1 | 239 to 240
36 | O=C(O)CSc1nc(Cl)cc(Cl)n1 | 120 to 122
37 | CCCCc1[nH]c(=O)c(C#N)cc1C(C)=O | 195 to 197
38 | COc1ccc(C(=O)C2=C(O)C(=O)N(c3ccc(C)nn3)C2c2ccc(OC(F)(F)F)cc2)cc1 (stereo not given) | 265
39 | CCc1nc2c(N)nc3ccccc3c2n1CCOCCS(C)(=O)=O | 160 to 163
40 | COc1cc2cc(CO)nc(-c3cccc(Cl)c3)c2cc1OC | 118 to 120
41 | CN(C)c1cccc2c(S(=O)(=O)N3CCC(NC(=O)Nc4ccc(OC(F)(F)F)cc4)CC3)cccc12 | 102 to 107
42 | O=C(O)c1oc(-c2ccccc2)cc(=O)c1Cl | 250
43 | CCOC(=O)CCn1ccn(C2CCc3ccccc3C2)c1=S (stereo not given) | 71 to 73
44 | COc1ccc(S(=O)(=O)N2CCc3cccc(-c4ccc(F)c(F)c4)c32)cc1 | 180 to 181
45 | CCOC(=S)c1ncncc1C | 99 to 100
46 | CC(OC1CCCN(Cc2n[nH]c(=O)[nH]2)C1c1ccccc1)c1cc(C(F)(F)F)cc(C(F)(F)F)c1 (stereo not given) | 214 to 215
47 | O=C(Nc1cccc(Cl)c1)N1CCN(C(=O)c2ccc(Nc3ccnc4cc(C(F)(F)F)ccc34)cc2)CC1 | 266 to 268
48 | N=C(Nc1ccc(C2CCCC2)c(CN2CCC[C@H]2CO)c1)c1cccs1 | 132 to 133
49 | CCOC(=O)c1cn(C2CC2)c2nc(N3C[C@@H](CN(CC)C(=O)C(F)(F)F)[C@@H](F)C3)c(F)cc2c1=O (relative stereo) | 150 to 153
50 | Cc1cccc2c1C(=O)C([N+](=O)[O-])C2=O (stereo not given) | 108 to 109

Row | Structure (SMILES) | melting point [°C]
51 | COC(=O)c1ccc(Nc2ccc(C#N)cc2NC(C)=O)cc1 | 231 to 232
52 | CN1CCC(C(C(=O)N2CCCC2)(c2ccccc2)c2ccccc2)C1 (stereo not given) | 137 to 140
53 | COC(=O)NCCNC(=O)c1cc(C)c(C(c2cc(F)ccc2F)S(=O)(=O)c2ccc(F)cc2)cn1 (stereo not given) | 167 to 169
54 | O=[N+]([O-])c1cccnc1Sc1ncccn1 | 122 to 124
55 | CN(C)Cc1ccc(/C=C/C(=O)O)cn1 | 144
56 | COc1cc2ccc(S(=O)(=O)Cl)cc2cc1OC | 128 to 130
57 | COC(=O)C1=C(C)NC(C)=C(C(=O)OC)C1C1CCC(C(=O)OC)C1 (stereo not given) | 144 to 145
58 | O=[N+]([O-])c1ccc(-c2cccnc2)cc1 | 145 to 148
59 | Cc1cc(C)c(-c2nc(Oc3ccccc3)nc(Oc3ccccc3)n2)c(C)c1 | 135 to 143
60 | O=C(O)Cc1ccc2c(c1)Nc1ccccc1S2 | 202
61 | CC(=O)c1ccncc1OC1SCC(O)C(O)C1O (stereo not given) | 163
62 | COc1ccc(C(C)(C)C)cc1C=Cc1ccc(C=O)cc1 | 82 to 83
63 | O=c1[nH]cc(-c2cccc(Cl)c2)c2ncccc12 | 252
64 | Cc1ccc(F)c(-c2ccc(S(=O)(=O)N3c4ccccc4CC3C(=O)NCCOc3ccc(CC(=O)O)cc3)cc2)c1 (stereo not given) | 82 to 85
65 | N#Cc1cncc(NCc2ccccc2)c1 | 131
66 | CNc1nc(N)nc(-c2ccccc2)c1-c1ccc(=O)n(C(C)C)n1 | 268 to 270
67 | O=C(c1cc(-c2ccncc2)c(N2CCOCC2)s1)c1ccc(Cl)cc1Cl | 180
68 | O=C(O)COc1c(-c2cc(Cl)cc(Cl)c2)cc(C(=O)NCCCCCCCCc2ccccc2)cc1-c1cc(Cl)cc(Cl)c1 | 139 to 149
69 | C(CCc1cncn1Cc1ccccc1)=C(c1ccccc1)c1ccccc1 | 161 to 168
70 | O=C(Nc1nccs1)C(CC1CCCC1)c1ccc(-c2ccccc2)cc1 (stereo not given) | 57 to 58
71 | Fc1ccc(/C=C/c2nc(COc3ccc(CCCCn4ccnn4)cc3)co2)c(F)c1 | 115 to 117
72 | O=C(c1ccccc1)c1ccc(OCCCCCCBr)c(Cl)c1 | 58
73 | O=C(Cc1ccc(F)cc1)N1CCN(Cc2ccccc2)CC1 | 99 to 101
74 | CCn1nc(-c2ccc(OC)c(F)c2)c(-c2ccc(OC)cc2)cc1=O | 123 to 124
75 | CN(CCOc1ccccc1C(N)=O)CCc1ccc([N+](=O)[O-])cc1 | 116 to 118

Row | Structure (SMILES) | melting point [°C]
76 | COc1ccc(-c2cc3cc(F)c(F)cc3[nH]2)cc1NS(=O)(=O)c1cccc(N)c1 | 235 to 238
77 | NC1Cc2ccc(-c3ccc(=O)[nH]n3)cc2C1 (stereo not given) | 228 to 229
78 | CCCc1c(OCCCCCc2nnnn2C)ccc(C(C)=O)c1O | 72 to 75
79 | COc1ccc(-c2oc3c(CC=C(C)C)c(OC4OC(CO)C(O)C(O)C4O)cc(O)c3c(=O)c2OC2OC(C)C(O)C(O)C2O)cc1 (stereo not given) | 231 to 233
80 | O=C(O)c1ccc2n1Cc1ccccc1N(C(=O)COc1ccc(Cl)cc1)C2 | 168
81 | C=CCN1C(=O)C2CC(c3ccc(N)cc3)(C2)C1=O | 176 to 178
82 | CCN(CC)CCCNC(=O)N1CCCC(S(=O)(=O)c2ccccc2)C1 (stereo not given) | 56 to 58.5
83 | CS(=O)(=O)NC(=O)C1(CCCCCCCCCCCCC2(C(=O)NS(C)(=O)=O)CC2)CC1 | 148
84 | CCOC(=O)C1=C(C#N)NC(C)=C(C(=O)OCCOCc2ccccc2)C1c1cccc([N+](=O)[O-])c1 (stereo not given) | 114 to 115
85 | COC(=O)C1=C(C)NC(c2csc(Cl)n2)=NC1c1ccc(F)cc1Cl (stereo not given) | 160 to 162
86 | CC(C)n1cnc2c(NCc3cccc(O)c3O)nc(NC[C@@H](C)O)nc21 | 182 to 183
87 | Cc1nc(N2CCN(Cc3ccc(C(F)(F)F)cc3)C2=O)sc1C(=O)NCc1cccnc1 | 107 to 108
88 | NC(=O)c1[nH]c2ccccc2c1Cl | 191 to 192
89 | COc1ccc(-c2c(N)cnc3ccc(Cl)cc23)cc1OC | 187 to 190
90 | O=C1Cc2c([nH]c3ccccc23)-c2ncccc2N1 | > 330
91 | O=C(N[C@H](Cc1ccc(C(F)(F)F)cc1)[C@@H](O)c1ccc(F)cc1)c1cccc(Oc2ccccc2)c1 (racemic) | 144 to 145
92 | CC(C)(Oc1ccc(CCC(O)c2ccc(-c3ccc(C(F)(F)F)cc3)s2)c(Cl)c1Cl)C(=O)O (stereo not given) | 54 to 56
93 | COc1cccc(C(O)(CC2CCNCC2)c2cccc(OC)c2)c1 | 111 to 113
94 | CC(=O)OC(C)C(=O)Nc1ccc(C2=NNC(=O)CC2C)cc1 (stereo not given) | 198 to 200
95 | COc1ccccc1OCC(O)CN1CCC(=O)CC1 (stereo not given) | 77 to 78
96 | Clc1cccc(Cl)c1-c1nc(-c2ccccc2)c(-c2ccccc2)[nH]1 | 125 to 127
97 | CC(=O)NC(C)C1=NN(Cc2ccccc2)C(C)NC1=O (stereo not given) | 196 to 203
98 | CN1CCN(c2cc3c(cc2F)c(=O)c(C(=O)O)cn3C2CC2)CC1c1ccsc1 (stereo not given) | 230
99 | CCOC(=O)C1=Cc2cc(C(O)C(F)(F)F)ccc2OC1C(F)(F)F (stereo not given) | 114 to 120
100 | CCOC(=O)C1=C(C)NC(CSC(=O)CCC2CCCCC2)=C(C(=O)OCC)C1c1cccc([N+](=O)[O-])c1 (stereo not given) | 109 to 112
